The text below walks through data of a melting point compilation (Tetko et al.; mined from patent text by program, amines drawn as free bases though some values may be those of a salt).

`COC(=O)c1ccccc1C(=O)NC(C)(C)C#N`: the melting point (usually the temperature, or range, at which the solid turns liquid) was in the range of 100 to 101 °C.
As for `COc1ccc2nc(-c3ccc4c(c3)NC(=O)C4(C)C)[nH]c2c1`, the melting point lay within 85 to 90 °C.
With `CCOCc1nc2c(N)nc3ccccc3c2n1CC(C)(C)N`, the melting point lay within 161 to 162 °C.
Consider `COc1cc(-c2nc3ccccc3n2Cc2c(Cl)cccc2Cl)cc(OC)c1OC`, for which the melting point amounted to 157 °C.
With `COc1ccc(O)c(CSc2ccccc2CO)c1`, the melting point lay in the range of 80 to 82 °C.
`COc1ccc2ccc3nc(C(=O)O)cn3c2c1` registered a melting point of 272 to 273 °C.
Under `CC(=O)NCCCCc1ccc(C(=O)C(C)Cl)cc1` (stereo unspecified) stands 66 to 67 °C.
Compound `NC(=O)N(O)CCNC(=O)Cc1ccccc1Nc1c(Cl)cccc1Cl` yielded a melting point of 187 to 189 °C.
Under `CC(SC1COC(C2([N+](=O)[O-])C=CC(C(=O)Nc3ccccc3)=CC2)OC1)C(O)(Cn1cncn1)c1ccc(F)cc1F` (stereo unspecified) stands 189 °C; under `CCC(CC)c1nn(-c2ncc(C(F)(F)F)cn2)cc1CCCOc1c(CC(=O)O)cccc1OC`, 163 to 164 °C.
Under `CC(C)(C)OC(=O)NCC(NC(=O)OC(C)(C)C)C(=O)NCCNC(=O)OCc1ccccc1` (stereo unspecified) stands 152 to 154 °C; under `C=C(C)C(=O)OCCCCOc1ccc(C(=O)Cl)cc1`, 30 to 31 °C; under `CN1CC=C(c2c[nH]c3ccc(C4CN=CS4)cc23)CC1` (stereo unspecified), 260 to 263 °C.
Under `COc1cccc(C2Cc3ccccc3C2=O)c1` (stereo unspecified) stands 144 to 146 °C.
In turn, `O=C(N[C@H]1CC[C@H](CCN2CCC(c3cccc4c3CCO4)CC2)CC1)C1CC1` came in with a melting point of 208 °C.
For the compound `COc1ccnc(CSc2nc3c(OC(F)F)c(OC)c(OC)cc3[nH]2)c1`, the melting point was in the range of 112 to 114 °C.
Compound `COC(=O)c1nccnc1Nc1ccccc1` returned a melting point of 72 to 75 °C.
Regarding `Cc1nc(-c2ccc(=O)n(C(C)C)n2)c(-c2ccccc2)nc1O`, the melting point is over 250 °C.
The compound `CNC(=O)S(=O)(=O)Nc1sc(CC(C)C)cc1-c1ccc(Cn2c(-c3ccccc3)nc(OC)c2C=O)cc1` registered a melting point of 102 to 103 °C.
As to `CCCCC1C(C(=O)OCC)C(O)(C(F)(F)F)NC(O)(C(F)(F)F)C1C(=O)OCC` (stereo unspecified), the melting point was 77 to 80 °C.
In turn, `COc1ccc(C(=O)NCCOc2cccc3c2OCCO3)c(OC)c1OC` returned a melting point of 128 °C.
Under `CC(C)CN1CCN(C(=O)c2ccc(OCc3ccccc3)cc2)CC1` stands 77.6 to 78.4 °C; under `COc1cc(N)c(Cl)cc1C(=O)NC1CCN(C(C)CC(C(=O)N(C)C)(c2ccccc2)c2ccccc2)CC1OC` (stereo unspecified), 198 °C; under `O=c1[nH]c2ccccc2cc1-c1nnn[nH]1`, 301 to 303 °C.
Turning to `Cc1onc(NS(=O)(=O)c2ccc([N+](=O)[O-])cc2)c1Br`, the melting point lay within 161 to 163 °C.
Compound `COc1cccc(CNC(=O)c2nc3sc(C(=O)O)c(C)c3c(=O)[nH]2)c1` returned a melting point of over 300 °C.
In the case of `C[C@@H](n1ccnc1)C(O)(c1ccc(Cl)cc1)c1ccc(Cl)cc1`, the melting point fell in the range of 159 to 161 °C.
The figure for `O=C(NCc1cccnc1)c1cc2ccnc(Cl)c2[nH]1` is 189 to 191 °C; for `CC(C)N1C(=O)C(C)(C)N=C(c2ccccc2Cl)c2cc([N+](=O)[O-])ccc21` it is 169 to 170 °C.
Regarding `COc1ccc(C(C#Cc2ccccc2)CC(N)=O)cc1OC1CCCC1` (racemic), the melting point lay in the range of 142 to 144 °C.
`Cc1cccc(C)c1NC(=O)CS(C)=O` (stereo unspecified) yielded a melting point of 112 to 114 °C.
In turn, `Cc1nccn1CCCNC(=O)c1cc2ccccc2[nH]1` registered a melting point of 235 to 237 °C.
The figure for `COc1nc2cc(Cl)cc(Cl)c2cc1Br` is 135 to 138 °C; for `COc1ccc(C2=NC(C)(C)CO2)cc1N` it is 108 to 110 °C.
Compound `Cn1ncc(C(=O)O)c1C(=O)Nc1ccn2nc(-c3cccc(F)c3)nc2c1` registered a melting point of over 260 °C.
Under `CCOC(=O)c1cnc2nn(C)cc2c1OCCC(C)C` stands 100 to 102 °C; under `CSc1ccc(C=CC#N)cc1`, 79 °C.
`CC(C)CCOC(=O)C(O)C(CC(C)C)NC(=O)C(Cc1c[nH]cn1)NC(=O)C(CC(=O)NCCc1ccccc1)Cc1cccc2ccccc12` (mixture of isomers) had a melting point of 82 to 87 °C.
The figure for `O=C(Nc1nnc(C2CC2)o1)C(c1ccccc1)c1ccccc1` is 159 to 160 °C; for `O=C(CO)Nc1nc(-c2ccc(Br)cc2)cs1` it is 222 to 224 °C; for `C=CCc1c(O)cc(C)c(O)c1C` it is 114 to 116 °C.
`Fc1ccc(C2=Nc3cccnc3Nc3ccccc32)cc1`: the melting point fell in the range of 203 to 205 °C.
In turn, `O=C(O)c1cnc2ccc(C3CCCCC3)cc2c1O` showed a melting point of 263 to 265 °C.
The figure for `Cn1c(=O)n(CCC[C@@H](NS(=O)(=O)c2ccc(-c3ccccc3)cc2)C(=O)NO)c(=O)c2ccccc21` is 202 to 203 °C.
Under `COc1ccc(OC)c(-c2c(O)c3ccc(Cl)cc3[nH]c2=O)c1` stands 280 to 282 °C; under `COc1ccc(C(=O)Cc2ccc(Br)cc2)c(Cl)c1Cl`, 163 to 164 °C.
Under `COc1ccc(-c2nc(Sc3ccc(C(F)(F)F)cc3[N+](=O)[O-])[nH]c2-c2ccc(OC)cc2)cc1` stands 264 to 266 °C; under `CCCc1cccc(Cl)c1C(=O)N[C@@H](Cc1ccc(-c2c(C)n(C)c(=O)n(C)c2=O)cc1)C(=O)O`, 205 to 209 °C; under `CC1CCc2c3c(cc4ccccc24)C(=O)C(C(=O)O)CN31` (stereo unspecified), 270 to 273 °C.
In turn, `CCOP(=O)(/C=C/c1cn(-c2ccccc2)nc1OCc1ccc(OCc2nc(-c3cccc(C#N)c3)oc2C)c(OC)c1)OCC` had a melting point of 147 to 148 °C.
The figure for `OCC1Cc2c(c(Cl)cc3c(-c4c(F)cccc4F)noc23)O1` (stereo unspecified) is 166 to 169 °C.
Under `CC(C)c1cccc(C(C)C)c1NC(=O)CN1CCN(CCSc2nc3cccc(C(C)(C)C)c3o2)CC1` stands 138 to 140 °C; under `CN1C(=O)CN=C(c2ccccc2F)c2c1ccc(NC(=O)NC(C)(C)C)c2Cl`, 206 to 208 °C.
Compound `Cc1cc(-n2ccnc2)c2cccc(OCc3c(Cl)ccc(S(=O)(=O)N4CCCC4C(=O)NCC4CCCCN4C(=O)CC(=O)O)c3Cl)c2n1` (stereo unspecified) showed a melting point of 130 °C.
For `O=c1c(Cc2cccnc2)cn2c3ccccc3c3cc(OCCCO)cc1c32`, the melting point is 72.5 to 78.6 °C.
Under `COc1ccc(-c2c[nH]c(-c3cccnc3)n2)cc1` stands 184 to 186 °C; under `O=C(Nc1cccc(S(=O)(=O)NCCc2ccncc2)c1)c1cnn2c(C(F)(F)F)cc(-c3ccc(C(F)(F)F)cc3)nc12`, 236 °C.
The figure for `CCOC(OCC)c1cccc2c1Sc1ccccc1N2C` is 44.6 to 46.2 °C; for `CCCCCCCCCCC(O)C1CCC(C2CCC(C(O)CCCCCCCCCCC3CC(CC(C)=O)C(=O)O3)O2)O1` (stereo unspecified) it is 90.5 to 90.7 °C.
Turning to `Nc1ccc(NC(=O)CCCCC2CCSS2)cc1` (stereo unspecified), the melting point is 55 to 60 °C.
Under `Cc1cc(-c2ccc(C(F)(F)F)cc2)nc(-c2cccc(-c3cccc(S(N)(=O)=O)c3)c2)n1` stands 224 °C; under `Cc1ccc(CCCO)c(NCc2ccc3nc(NCCCN4CCOCC4)n(Cc4cccc5cccnc45)c3c2)c1`, 165 °C.
Under `Cn1cc(Cl)c2cccc(C(=O)c3ccccc3)c21` stands 73 to 74.5 °C.
`Cc1cccc(-c2n[nH]cc2-c2ccc(F)c(-c3ccc(S(N)(=O)=O)s3)c2)n1` showed a melting point of 125 °C.
Under `COc1ccc(C=CC2=NNC(C)Cc3cc4c(cc32)OCO4)c(OC)c1` (stereo unspecified) stands 176 to 178 °C; under `C=CCN1CCN(c2cc3c(cc2F)c(=O)c(C(=O)O)cn3CC=C)CC1`, 186 °C; under `Nc1nc(Cl)c2ncn([C@@H]3C[C@H](O)[C@@](O)(CO)C3)c2n1`, 217 to 219 °C.
`CCOC(=O)COc1ccc([N+](=O)[O-])c(C=C2NC(=O)NC2=O)c1`: the melting point fell in the range of 268 to 270 °C.
For `CS(=O)(=O)Nc1cc(N)c(F)cc1C#N`, the melting point was 235 °C.
The figure for `COc1cc(C(C)C)c(NC(=O)CN2CCN(CCSc3nc4cccc(C(F)(F)F)c4o3)CC2)c(C(C)C)c1` is 122 to 123 °C; for `COCC(C)(C)NC(=O)C(OC)Oc1ccc2ccc(Br)cc2c1` (stereo unspecified) it is 65 to 67 °C; for `COC1(c2ccc(F)cc2)CCC(=NO)CC1` (stereo unspecified) it is 86 to 89 °C.
In turn, `COc1cc2nc(SCc3nccc(N(C)C)c3Cl)[nH]c2cc1OC` displayed a melting point of 121 to 122 °C.
`COC(=O)c1ccc(-c2cccc(C=O)c2)cc1` had a melting point of 95 to 97 °C.
Under `N#CC(c1ccccc1)N1CCN(C2CCCCC2)CC1` (stereo unspecified) stands 79 to 81 °C.
Under `CC#CCOc1ccc(S(=O)(=O)N(Cc2cccnc2)C2(C(=O)NO)CCCCC2)cc1` stands 179 to 181 °C.
The figure for `CC(=O)N1C(C(=O)NC2CCC(O)CC2)C(c2cccc(Cl)c2F)C2(C(=O)Nc3cc(Cl)ccc32)C1CC(C)(C)C` (stereo unspecified) is 220 °C; for `C=CCCCCCCCCCN1C(=O)c2ccccc2C1=O` it is 25 to 30 °C; for `Cc1oc(-c2ccc3ccccc3c2)nc1COc1ccc(C=O)cc1` it is 163 to 164 °C.
Compound `ClCCCCCOc1ccccc1OCCCCCCl` came in with a melting point of 61 °C.
Under `COc1ccc2nc3ccc(C#N)cn3c(=O)c2c1` stands 284 to 285 °C.
The compound `COCCNC(=O)c1cccc(-c2cccc3cc(COc4cc(C(F)(F)F)ccn4)sc23)c1` had a melting point of 186 to 187 °C.
Under `O=C1Nc2cc(Cl)cc(Cl)c2C1c1cc(Cl)ccc1O` (stereo unspecified) stands 238 to 240 °C; under `Cn1c(=O)c(-c2ccc(Cl)cc2Cl)cc2c3cc(-c4ccn[nH]4)ccc3[nH]c21`, 246 to 250 °C.
Turning to `Nn1c(C2CC2)cc(-c2ccc(C(F)(F)F)cc2)cc1=O`, the melting point was 132 °C.
The figure for `Cc1cccc(-c2nc(N)sc2-c2cccc(-c3ccc(S(C)(=O)=O)cc3)c2)n1` is 107 to 109 °C.
